In ChEMBL document CHEMBL5528052, “Single Deletion Unmasks Hidden Anti-Gram-Negative Bacterial Activity of an Insect Defensin-Derived Peptide” (J Med Chem, 2024):
Active and inactive are the calls of the source. The rule behind the calls is not given here. Peptide text beside a SMILES is read from it.

Key:
Escherichia coli [1] = test: Antimicrobial activity against Escherichia coli J14b assessed as lethal concentration; assay type: functional
Alcaligenes faecalis = test: Antimicrobial activity against Alcaligenes faecalis CGMCC 1.1837 assessed as lethal concentration; assay type: functional
Geotrichum candidum = test: Antifungal activity against Geotrichum candidum CCTCC AY 93038 assessed as lethal concentration; assay type: functional
Staphylococcus aureus [2] = test: Antimicrobial activity against methicillin-resistant Staphylococcus aureus P1386 assessed as lethal concentration; assay type: functional
Streptococcus mutans [3] = test: Antimicrobial activity against Streptococcus mutans ATCC 1.2499 assessed as lethal concentration; assay type: functional
Escherichia coli [4] = test: Antimicrobial activity against Escherichia coli G2b assessed as lethal concentration; assay type: functional
Pseudomonas aeruginosa [5] = test: Antimicrobial activity against Pseudomonas aeruginosa 11082603 assessed as lethal concentration; assay type: functional
[6] = system: Lysinibacillus fusiformis; test: Antimicrobial activity against Lysinibacillus fusiformis assessed as lethal concentration; assay type: functional
Cell membrane [7] = test: Induction of membrane disruption in Staphylococcus epidermidis incubated for 90 mins by SEM analysis; assay type: cell membranes
[8] = Solubility of compound in water at 1 nmol by RP-HPLC analysis; assay type: physicochemical; conditions: buffer
Micrococcus luteus [9] = test: Antimicrobial activity against Micrococcus luteus in presence of human serum; assay type: functional, organism-based
Escherichia coli [10] = test: Antimicrobial activity against Escherichia coli J16c assessed as lethal concentration; assay type: functional
Escherichia coli [11] = test: Antimicrobial activity against Escherichia coli DH5alpha assessed as lethal concentration; assay type: functional
Streptococcus mutans [12] = test: Antimicrobial activity against Streptococcus mutans ATCC 1.2499 at 1 nmol relative to control; assay type: functional, organism-based
Escherichia coli [13] = test: Antimicrobial activity against Escherichia coli J23a assessed as lethal concentration; assay type: functional
HEK293 = test: Cytotoxicity against HEK293 cells assessed as reduction in cell viability at 200 microg/ml incubated for 48 hrs by CCK-8 assay; assay type: toxicity, cell-based; conditions: human, hek293, 48 h, dose 200 µg/ml
[14] = Solubility of compound in guanidine hydrochloride at 1 mg/ml by RP-HPLC analysis; assay type: physicochemical
Staphylococcus warneri = test: Antimicrobial activity against Staphylococcus warneri ATCC 1.2824 assessed as lethal concentration; assay type: functional
Staphylococcus aureus [15] = test: Antimicrobial activity against methicillin-resistant Staphylococcus aureus P1374 assessed as lethal concentration; assay type: functional
Micrococcus luteus [16] = test: Antimicrobial activity against Micrococcus luteus in presence of NaCl; assay type: functional, organism-based
Salmonella enterica [17] = test: Antimicrobial activity against Salmonella enterica ATCC 14028 assessed as lethal concentration; assay type: functional
Curtobacterium luteum = test: Antimicrobial activity against Curtobacterium luteum assessed as lethal concentration; assay type: functional
Staphylococcus aureus [18] = test: Antimicrobial activity against penicillin-resistant Staphylococcus aureus P1383 assessed as lethal concentration; assay type: functional
Streptococcus sanguinis = test: Antimicrobial activity against Streptococcus sanguinis ATCC 1.2497 assessed as lethal concentration; assay type: functional
Bacillus subtilis = test: Antimicrobial activity against Bacillus subtilis CGMCC 1.2428 assessed as lethal concentration; assay type: functional
Staphylococcus [19] = test: Antimicrobial activity against methicillin-resistant coagulase negative Staphylococcus P1369 assessed as lethal concentration; assay type: functional
Pseudomonas aeruginosa [20] = test: Antimicrobial activity against Pseudomonas aeruginosa 11092304 assessed as lethal concentration; assay type: functional
Micrococcus luteus [21] = test: Antimicrobial activity against Micrococcus luteus CGMCC 1.0290 assessed as lethal concentration; assay type: functional
Pseudomonas aeruginosa [22] = test: Antimicrobial activity against Pseudomonas aeruginosa FRD1 assessed as lethal concentration; assay type: functional
Priestia megaterium = test: Antimicrobial activity against Bacillus megaterium CGMCC 1.0459 assessed as lethal concentration; assay type: functional
Staphylococcus aureus [23] = test: Antimicrobial activity against Staphylococcus aureus J685 assessed as lethal concentration; assay type: functional
Pseudomonas aeruginosa [24] = test: Antimicrobial activity against Pseudomonas aeruginosa O1 assessed as lethal concentration; assay type: functional
Komagataella pastoris = test: Antifungal activity against Pichia pastoris X33 assessed as lethal concentration; assay type: functional
[25] = system: Staphylococcus epidermidis; test: Antimicrobial activity against penicillin-resistant Staphylococcus epidermidis P1389 assessed as lethal concentration; assay type: functional
Pseudomonas aeruginosa [26] = test: Antimicrobial activity against Pseudomonas aeruginosa assessed as lethal concentration; assay type: functional
Pseudomonas aeruginosa [27] = test: Antimicrobial activity against Pseudomonas aeruginosa 11092618 assessed as lethal concentration; assay type: functional
Pseudomonas aeruginosa [28] = test: Antimicrobial activity against Pseudomonas aeruginosa 11082616 assessed as lethal concentration; assay type: functional
Pseudomonas aeruginosa [29] = test: Antimicrobial activity against Pseudomonas aeruginosa DH assessed as lethal concentration; assay type: functional
Staphylococcus [30] = test: Antimicrobial activity against methicillin-resistant coagulase negative Staphylococcus P1369 at 0.25 to 1 nmol; assay type: functional, organism-based; conditions: dose 0.25-1 nmol
Pseudomonas aeruginosa [31] = test: Antimicrobial activity against Pseudomonas aeruginosa 374 assessed as lethal concentration; assay type: functional
Salmonella enterica [32] = test: Antimicrobial activity against Salmonella enterica ATCC 14028 at 0.25 to 1 nmol; assay type: functional, organism-based; conditions: dose 0.25-1 nmol
[33] = Stability of compound in PBS at pH 7 measured after 3 days; assay type: physicochemical; conditions: buffer, pH 7, 72 h; time 3 day
Escherichia coli [34] = test: Antimicrobial activity against Escherichia coli J45b assessed as lethal concentration; assay type: functional
[35] = Retention time of the compound by RP-HPLC analysis; assay type: physicochemical
Ralstonia solanacearum = test: Antimicrobial activity against Ralstonia solanacearum assessed as lethal concentration; assay type: functional
Streptococcus salivarius = test: Antimicrobial activity against Streptococcus salivarius ATCC 1.2498 assessed as lethal concentration; assay type: functional
Cell membrane [36] = test: Induction of cytoplasmic membrane disruption in Bacillus megaterium assessed as increase in fluorescence intensity by NPN uptake assay; assay type: cell membranes; conditions: Priestia megaterium
[37] = system: Stenotrophomonas maltophilia; test: Antimicrobial activity against Stenotrophomonas maltophilia CGMCC 1.1788 assessed as lethal concentration; assay type: functional
Cell membrane [38] = test: Disruption of outer membrane integrity in […] by NPN uptake assay; assay type: cell membranes
Cell membrane [39] = test: Induction of membrane disruption in Staphylococcus epidermidis incubated for 30 mins by transmission electron microscopic analysis; assay type: cell membranes
Pseudomonas aeruginosa [40] = test: Antimicrobial activity against Pseudomonas aeruginosa QT1 assessed as lethal concentration; assay type: functional
Erythrocyte = test: Hemolytic activity in mouse erythrocytes assessed as hemolysis at 100 uM; assay type: toxicity, cell-based

CC[C@H](C)[C@H](NC(=O)[C@H](CCCCN)NC(=O)[C@H](CC(N)=O)NC(=O)[C@H](CC(N)=O)NC(=O)[C@H](CS)NC(=O)[C@H](Cc1ccc(O)cc1)NC(=O)[C@H](CS)NC(=O)[C@@H](NC(=O)[C@H](C)N)[C@@H](C)O)C(=O)N[C@@H](CS)C(=O)N[C@H](C(=O)N[C@@H](CS)C(=O)N[C@@H](CCCNC(=N)N)C(=O)N[C@@H](CCCNC(=N)N)C(N)=O)C(C)C (H-ATCYCNNKICVCRR-NH2)
LD (Escherichia coli [1]): 12.9 µM
LD (Alcaligenes faecalis): 10.4 µM
LD (Geotrichum candidum): 9.62 µM
LD (Staphylococcus aureus [2]): 3.46 µM
LD (Streptococcus mutans [3]): 3.22 µM
LD (Escherichia coli [4]): 12.9 µM
LD (Pseudomonas aeruginosa [5]): 15.38 µM
LD [6]: 0.63 µM
Activity (Cell membrane [7]): Active
solubility [8]: Soluble
Activity (Micrococcus luteus [9]): Active
LD (Escherichia coli [10]): 7.86 µM
LD (Escherichia coli [11]): 21.42 µM
Activity (Streptococcus mutans [12]): inactive
LD (Escherichia coli [13]): 7.86 µM
Activity (HEK293): Non-Toxic
solubility [14]: Soluble
LD (Staphylococcus warneri): 4.17 µM
LD (Staphylococcus aureus [15]): 4.62 µM
Activity (Micrococcus luteus [16]): Active
LD (Salmonella enterica [17]): 4.88 µM
LD (Curtobacterium luteum): 0.87 µM
LD (Staphylococcus aureus [18]): 1.17 µM
LD (Streptococcus sanguinis): 2.58 µM
LD (Bacillus subtilis): 2.6 µM
LD (Staphylococcus [19]): 0.27 µM
LD (Pseudomonas aeruginosa [20]): 43.43 µM
LD (Micrococcus luteus [21]): 2.6 µM
LD (Pseudomonas aeruginosa [22]): 21.95 µM
LD (Priestia megaterium): 1.23 µM
LD (Staphylococcus aureus [23]): 7.01 µM
LD (Pseudomonas aeruginosa [24]): 21.42 µM
LD (Komagataella pastoris): 7.86 µM
LD [25]: 12.79 µM
LD (Pseudomonas aeruginosa [26]): 7.32 µM
LD (Pseudomonas aeruginosa [27]): 75.89 µM
LD (Pseudomonas aeruginosa [28]): 35.1 µM
LD (Pseudomonas aeruginosa [29]): 49.32 µM
Activity (Staphylococcus [30]): Active
LD (Pseudomonas aeruginosa [31]): 35.1 µM
Activity (Salmonella enterica [32]): Active
Stability [33]: Stable
LD (Escherichia coli [34]): 7.14 µM
Retention_time [35]: 14.5 min
LD (Ralstonia solanacearum): 17.5 µM
LD (Streptococcus salivarius): 2.51 µM
Activity (Cell membrane [36]): Active
LD [37]: 21.72 µM
Activity (Cell membrane [38]): Active
Activity (Cell membrane [39]): Active
LD (Pseudomonas aeruginosa [40]): 22.87 µM
Activity (Erythrocyte): Non-Toxic
